Where “and” joins values, the source holds several entries; their conditions need not be identical. Equal values may be shown once. Entries after “also recorded” stand apart in the source; their conditions may differ. Read-outs that look alike come from different tables or passages of the source. Marks after values point to notes of the source that are not given here.

The nature of data set [1]: CRA trough plasma concentrations (LC-MS/MS). It is filed as in vivo, human. The protocol: Cis retinoic acid PK studies were performed during the first 2 cycles of therapy. Serial sampling of venous blood was obtained at the following times: pre-treatment on Cycle 1, days 1, 2, 3, 4, 8, and 15 and pre-treatment on Cycle 2, days 1, 15, 16, 17, and 22. Blood samples were collected in heparinised tubes and were processed by centrifugation within 30 min at 1000 g at 4 °C for 10 min. Plasma was stored at −20 °C until analysis using a validated LC-MS/MS analytical method. Briefly, 1 ml plasma was extracted with 5 ml of acetonitrile/n-Butyl chloride (1 : 4, v/v) containing paclitaxel. Cis retinoic acid was separated on a Waters (Milford, MA, USA) X-Terra MS C18 (50 × 2.1 mm, 3.5 μm) column with 0.1% formic acid in acetonitrile/10 mM ammonium acetate (80 : 20, v/v) using isocratic flow of 0.2 ml min^−1 for 5 min. Cis retinoic acid was quantitated over the range of 5–2000 ng ml^−1. Quality control samples were assayed with each analytic run and were within 15% of the nominal concentration. […] Cmin at steady state (Css,min) was calculated for each patient by taking the average of the Cmin during each cycle.
Descriptive statistics were used to summarise patient characteristics, efficacy, and safety data. […] Differences between CRA Css,min during each cycle were evaluated statistically by use of a non-parametric, 2-sided Wilcoxon signed rank test for paired observations. […]

On the set-up of data set [2]: method as in Thurn et al, 2011. As to conditions: CRA after administration of a similar dose; ref Thurn et al, 2011; cited from earlier work.
Data set [3] is described as follows: Entinostat plasma pharmacokinetics (LC-MS/MS, non-compartmental analysis). As to conditions: for Cls/F (apparent oral clearance) / half-life / Tmax / Cmax / AUC: plasma; for half-life / Tmax / Cmax / AUC: human; for AUC: read-out: AUC0−∝. The class given is in vivo, human. The protocol:
Pharmacokinetic studies were performed during the first 2 cycles of therapy. […] Blood samples were collected in heparinised tubes and were processed by centrifugation at 1000 g for 10 min. Plasma was stored at −20 °C until analysis. […] Quality control samples were assayed with each analytic run and were within 15% of the nominal concentration. Individual PK parameters were estimated by standard non-compartmental analysis, which was performed using WinNonlin, Version 5.3 (Pharsight Corporation, Mountain View, CA, USA; [Gibaldi, 1982]). Descriptive statistics were used to summarise patient characteristics, efficacy, and safety data. Pharmacokinetic parameters were summarised by descriptive statistics using dose-normalised parameters for dose-dependent parameters and actual values for dose-independent parameters. Kruskal–Wallis analysis of variance by ranks or the Wilcoxon rank-sum were used to compare the differences in entinostat PK parameters and CRA Css,min as a function of dose level. […] Statistical calculations were performed with the software package JMP, Version 4.0.4 (SAS Institute, Cary, NC, USA). The a priori level of significance was set at P<0.05.

For data set [4] the following is noted: entinostat oral once weekly (fasting) with 1 mg kg^−1 CRA. Here is the method: A starting dose of 4 mg m^−2 and a fixed CRA dose at 1 mg kg^−1 per dose level were planned. If a patient experienced toxicities the next lower level was 2 mg m^−2. […] Originally six dose levels were included ([…]). Each cohort consisted of three patients according to the standard 3+3 design, where if one patient experiences a DLT, three additional patients are enroled.
Dose-limiting toxicity was defined as first cycle adverse events ⩾grade 3 non-haematological or ⩾grade 4 haematological toxicities. The MTD was defined as one dose level below the dose at which ⩾ two of six patients experience DLT. […] Tumour response assessment was performed every two cycles (2 months) by both clinical assessment and imaging studies.

Data set [5] relates to histone H3 acetylation in PBMCs. As to the kind of experiment: Western blot of histone H3 acetylation in PBMCs. It is filed as in vivo, human. The note with it: pre-treatment vs post-treatment time points, entinostat with CRA. Here is the method: (§1) A pre-treatment sample was taken on day 15. During Cycle 2, and subsequent cycles, samples were collected pre-treatment on days 1 and 15. […] Peripheral blood mononuclear cells were collected from patients according to the study calendar schedule. For isolation of PBMCs, 10 ml of blood were collected in CPT tubes (Vacutainer CPT Cell Preparation Tube with NC: 0.45 ml; Ficoll: 1.0 ml; Becton Dickinson, Franklin Lakes, NJ, USA) and plasma was separated by centrifugation. Differential centrifugation of plasma was performed to isolate PBMCs, which were kept frozen at −80 °C until the end of the study schedule for each patient. Fine needle aspiration (FNA) was planned on Cycle 1, day 22 in patients with accessible tumours to assess changes in acetylation and signalling pathway expression. For western blotting, PBMCs and tumour tissue were lysed in M-PER mammalian protein extraction reagent (Pierce, Rockford, IL, USA) with protease inhibitor cocktail (Roche Diagnostics, Indianapolis, IN, USA), followed by brief sonication. Proteins (20 μg per lane) from cell lysates were applied to 4–15% Tris-HCl gels (Bio-Rad, Hercules, CA, USA) and blotted with primary antibodies that were purchased from Upstate (Lake Placid, NY, USA) for anti-acetyl histone H3 and from Sigma (St Louis, MO, USA) for β-actin clone A1978, ERK, and phosphorylated ERK.
(In general: In western blotting, separated proteins are transferred to a membrane and probed.)

The subject of data set [6] is acetylated H3 in tumour tissue. As to the kind of experiment: Western blot of tumour FNA: acetylated H3. It is filed as in vivo, human. The note with it: FNA of liver lesion, patient with metastatic prostate cancer; entinostat with CRA. The protocol: as §1
The test system of data set [7] is phosphorylated ERK in tumour tissue. As to the kind of experiment: Western blot of tumour FNA: phosphorylated ERK. The class given is in vivo, human. The note with it: FNA of liver lesion, patient with metastatic prostate cancer; entinostat with CRA. Here is the method: as §1
The subject of data set [8] is human prostate cancer cell line (LAPC4). As to the kind of experiment: PSA secretion and PSA gene expression in LAPC4 cells in vitro. The class given is cell-based. An excerpt:
The sudden rise of tumour marker CA 19-9 in a patient with unresectable pancreatic cancer was worrisome for a rapid clinical progression. However, the CT scan documented stable disease for 6 months. […] An increase in the PSA slope occurred while on treatment, with a rapid deflection following treatment discontinuation. […] This observation poses some challenges as in the clinical development of ‘differentiation’ therapies increasing tumour marker levels may not be a significant sign for disease progression, but rather a potential signal of biological activity. […] Accordingly, the use of tumour markers for disease response assessment is evolving and needs to be further validated in prospective studies. Recently, the Prostate Cancer Clinical Trials Working Group recommended that in most clinical trials early changes in PSA should not be acted on without other evidence of disease progression, and treatment should be continued for at least 12 weeks to ensure adequate drug exposure ([Scher et al, 2008]).

Details of data set [9]: method as in Gore et al, 2008. The note with it: entinostat single agent, 7- or 14-day schedule; ref Gore et al, 2008; cited from earlier work.

As to `CC1=C(/C=C/C(C)=C/C=C/C(C)=C\C(=O)O)C(C)(C)CCC1` [CRA, 13-cis retinoic acid], the “average Css,min” value in data set [1] (Cycle 1, CRA 1 mg kg^−1 per day oral with entinostat) was found to be 194.9 ± 103.5 ng/mL; in [1] (Cycle 2, CRA 1 mg kg^−1 per day oral with entinostat) it was 131.8 ± 79.3 ng/mL. Moreover, in data set [2], the steady-state trough concentrations was 160 ± 19 ng/mL.
Take `Nc1ccccc1NC(=O)c1ccc(CNC(=O)OCc2cccnc2)cc1` [entinostat]: the “patients with measurable entinostat concentrations” value in [3] (1 week post-treatment) is 14 of 17. Further, the “Cls/F (apparent oral clearance)” value is on record as 14.9±22.0 ^c l h^−1 m^−2 in [3] (all dose levels (Total) with CRA, Cycle 1, day 1, mean±s.d., n=13) and 14.9±22.0 l h^−1 m^−2 in data set [3] (all dose levels (Total) with CRA, Cycle 1, day 1, mean±s.d., n=13, listed as Entinostat). For the same compound, the variability in clearance in data set [3] (entinostat with CRA, patients with solid tumours) was 147%; in [9] it was 24–68%. Besides, the half-life in data set [3] (oral, all dose levels (Total) with CRA, Cycle 1, day 1, mean±s.d., n=13, read-out: T1/2 (terminal half-life) (converted)) is 114 ± 78.2 h; in data set [3] (po, 4 mg m^−2, read-out: T1/2 (converted)), 130 ± 88.5 h; in [3] (po, 5 mg m^−2, read-out: T1/2 (converted)) it was 77.3 ± 31.9 h. Moreover, the time to peak (Tmax) in data set [3] (oral, all dose levels (Total, 4 and 5 mg m^−2) with CRA, Cycle 1, day 1, median (range), 18 patients) was 0.42 h; in [3] (po, 4 mg m^−2), 0.5 h; in [3] (po, 5 mg m^−2), 0.25 h; in [9] it was at most 1 h. Also, the Cmax in data set [3] (po, 4 mg m^−2) worked out at 114 ± 84 ng/mL; in [3] (po, 5 mg m^−2) it was 109 ± 66 ng/mL. For the same compound, the AUC turned out to be 587 ± 401 ng·h/mL in data set [3] (po, 4 mg m^−2) and 778 ± 648 ng·h/mL in data set [3] (po, 5 mg m^−2). The “maximum tolerated dose (MTD)” value in [4] was < 5 mg m^−2 and 4 mg m^−2. Also, the “histone H3 acetylation in PBMCs” value in data set [5] is reported as “transient increased acetylation”. The “intra-tumoural acetylated H3” value in data set [6] was “increased; also recorded: induction”. The “phosphorylated ERK protein levels in tumour” value in data set [7] is “decreased; also recorded: inhibition”. In addition, the PSA gene expression entry in [8] is “no change”. Also, the “increase in PSA secretion into the culture media” value in [8] (achievable plasma concentrations of entinostat, data not shown) turned out to be 2.5 fold.

A word on the Tmax: it is the time at which the peak concentration occurs. The term Cmax denotes the maximum level reached in the sampled fluid or tissue.

Values taken from article PMC3251867 (British Journal of Cancer, 2011).
